# Source: paper PMC12442099 (ACS Infectious Diseases, 2025)
# Assays:
# [1] = test system: Rcs stress response in E. coli MC4100 (WT, FQR, GEPR); experiment: Rcs stress reporter assay in MC4100 wildtype and resistant mutants; assay type: cell-based; conditions: EC80 concentrations
# Source text: Serial passaging of E. coli MC4100 in the presence of increasing concentrations of lomefloxacin or gepotidacin yielded resistant variants of E. coli MC4100. We used MC4100 to raise resistance, because unlike the screening strain TOP10F’, this strain has a functional SOS stress response, which has been implicated in developing resistance against quinolones. Compounds also elicited a robust Rcs stress response in E. coli MC4100, allowing for this strain to be used for stress assays.
# 4 Rcs stress induced by EC80 concentrations of (A) lomefloxacin, (B) gepotidacin, (C) A2, and (D) B1 in wildtype (WT), fluoroquinolone resistant (FQR) or gepotidacin resistant (GEPR) bacteria. Graphs show the fold change in fluorescence adjusted for bacterial growth as determined by OD600. Error bars indicate the standard deviation of triplicate samples. Data are representative of three independent experiments with similar results. […]
# (§1) For lower throughput analysis under laboratory conditions, cultures grown to OD600 of 0.3–0.4 were diluted to a final concnetration of 0.05 OD600 units/mL in black, clear-bottom 96-well plates (Greiner Bio-One B.V.). Plates were incubated in a Biotek HTX or H1 plate reader (Agilent Technologies) at 37 °C with continuous shaking. Kinetic studies were performed by measuring OD600 and fluorescence (Ex./Em. Λ: 485/528 nm) every 20 min for 10h. For end point measurements, fluorescence was measured at T = 0 and once more at T = 150 min.
# [2] = test system: SOS stress response in E. coli MC4100; experiment: SOS stress reporter assay (PlexA-mNG); assay type: cell-based; conditions: EC80 compound concentrations (Fig. 5A); Fig. S4
# Source text: (§2) To examine the potential link between DNA gyrase inhibition, SOS stress, and CE stress, we designed a fluorescent SOS reporter plasmid, similar to the reporter plasmids used to study CE stresses.
# 5 (A) SOS stress induced by different compounds at EC80 concentrations in E. coli MC4100. (B) Rcs stress of different compounds at EC80 concentrations in E. coli MC4100. (C) Rcs stress of the nonquinolone gyrase inhibitor LEI-800 in TOP10F’. (D) Rcs stress induced by mitomycin C in E. coli TOP10F’ and E. coli MC4100. Graphs show fold change in fluorescence adjusted for bacterial growth (OD600). Error bars indicate standard deviation of triplicates. Data are representative of two independent experiments with similar results.
# [3] = test system: SOS stress response in E. coli TOP10F’; experiment: SOS stress reporter assay (PlexA-mNG); assay type: cell-based; conditions: Fig. S4
# Protocol: as §2
# Figure S3: Growth kinetics of lomefloxacin, gepotidacin, A2 and B1 on WT, FQR and GEPR mutants. E. coli TOP10F’ cells were treated with EC80 concentrations of compounds and growth (OD600) recorded over time.
# Graphs indicate % growth compared to DMSO control. Error bars indicate standard deviations of triplicates.
# Data are representative of three independent experiments with similar results.
# Fold change (RFU/OD600) MMC 1.6 μM
# Fold change (RFU/OD600) Lome 18 μM
# Figure S4: SOS stress induced by mitomycin C (MMC) and lomefloxacin (Lome). A) E. coli MC4100 or B) TOP10F’ cells with a plasmid expressing mNeonGreen under control of a PlexA promotor were treated with compounds and growth (OD600) and fluorescence recorded over time. Graphs indicate fold change in growth-adjusted fluorescence compared to DMSO control. Error bars indicate standard deviations of triplicates. […]
# [4] = test system: Rcs stress response in E. coli TOP10F’; experiment: Rcs stress kinetics reporter assay; assay type: cell-based
# Protocol: (§3) Stress was measured in real-time during 10 h following compound treatment by normalizing the fluorescence intensity for growth as indicated by the optical density at 600 nm (OD600) of the culture.
# (§4) 3 Bacterial stress responses of different compound classes as shown in panel (A). (B) Rcs, (C) σE, (D) Cpx, and (E) heat shock. Graphs show fold change in fluorescence normalized for OD600 at EC80 compound concentrations over the course of 10h. Fold change values were determined by comparing OD600‑normalized fluorescence of compound-treated samples to DMSO treated samples. PMBN is used as a CE stress-inducing control at 25 μg/mL, which is the concentration used as a control during the screening campaign. Chloramphenicol at 1 μg/mL is used as a non-stress-inducing antibiotic control. Error bars indicate standard deviation of the average of triplicate samples from at least two independent experiments. (F) Overview of the different stress responses based on the compound class.
# as §1
# [5] = test system: Cpx stress response in E. coli TOP10F’; experiment: Cpx stress kinetics reporter assay; assay type: cell-based
# Protocol: as §3, §4, §1
# [6] = test system: heat shock (groES) response in E. coli TOP10F’; experiment: Heat shock (groES) stress kinetics reporter assay; assay type: cell-based; conditions: PMBN 25 μg/mL
# Protocol: as §3
# 3 Bacterial stress responses of different compound classes as shown in panel (A). (B) Rcs, (C) σE, (D) Cpx, and (E) heat shock. Graphs show fold change in fluorescence normalized for OD600 at EC80 compound concentrations over the course of 10h. Fold change values were determined by comparing OD600‑normalized fluorescence of compound-treated samples to DMSO treated samples. PMBN is used as a CE stress-inducing control at 25 μg/mL, which is the concentration used as a control during the screening campaign. Chloramphenicol at 1 μg/mL is used as a non-stress-inducing antibiotic control. […]
# as §1
# [7] = test system: σE stress response in E. coli TOP10F’; experiment: σE stress kinetics reporter assay; assay type: cell-based
# Protocol: as §3, §4, §1
# [8] = test system: Rcs stress (PrprA-mNG) in E. coli TOP10F’ cells; experiment: Rcs stress reporter assay, laboratory scale 96-well end point; assay type: cell-based; conditions: 50 μM MRL-494, 150 min, compared to 25 μM PMBN (100%)
# Protocol: as §1
# [9] = test system: E. coli TOP10F'; experiment: Growth inhibition after 7 hours (EC80/EC50); conditions: for EC50 / IC80: Escherichia coli, 7 h; for EC50: read-out: EC50 TOP10F'; for IC80: read-out: EC80 TOP10F'
# [10] = test system: E. coli MC4100 FQR and GEPR mutants; experiment: Growth kinetics on resistant mutants; assay type: cell-based; conditions: EC80 concentrations, Fig. S3
# Protocol: ONC of E. coli MC4100 were diluted to OD600 = 0.07 in 20 mL LB supplemented with an initial concentration of 0.4 μM lomefloxacin, 8 μM gepotidacin, or no antibiotic. After overnight incubation, part of the culture was plated onto LB agar plates with the same concentration of lomefloxacin or gepotidacin to isolate resistant colonies. OD600 of the remaining culture was determined and diluted to OD600 = 0.1 into fresh medium with a 1.5–2-fold increased concentration of lomefloxacin or gepotidacin. […] Resistant colonies were sent for Whole Genome Sequencing using short Illumina reads at MicrobesNG (Birmingham, UK). Sequencing data was analyzed using CLC Genomics Workbench (Qiagen).
# Figure S3: Growth kinetics of lomefloxacin, gepotidacin, A2 and B1 on WT, FQR and GEPR mutants. E. coli
# TOP10F’ cells were treated with EC80 concentrations of compounds and growth (OD600) recorded over time.
# Graphs indicate % growth compared to DMSO control. Error bars indicate standard deviations of triplicates. […]
# [11] = test system: E. coli MC4100; experiment: Growth inhibition after 7 hours (EC80/EC50); conditions: Escherichia coli, MC4100, 7 h; for EC50: read-out: EC50 MC4100; for IC80: read-out: EC80 MC4100
# [12] = test system: E. coli 25922; experiment: MIC broth microdilution; assay type: cell-based; conditions: Escherichia coli, CAMHB, median of triplicates, read-out: MIC (μg/mL) E. coli 25922
# Protocol: (§5) The antibacterial activity of the compounds was determined by measuring their minimum inhibitory concentration (MIC) values using the broth microdilution method according to the Clinical and Laboratory Standards Institute guidelines (CLSI). Briefly, a single colony from blood agar plates was inoculated into cation-adjusted Mueller-Hinton broth (CAMHB) and grown to OD600 = 0.5. Next, 10^6 CFU/mL were added to a 2-fold serial dilution series of test compounds and incubated at 37 °C, 600 rpm overnight (18–20 h for Gram-negative strains, 20–24 h for Gram-positive strains), after which the plates were visually inspected for bacterial growth. MICs are reported as the median of triplicates.
# [13] = test system: E. coli TOP10F’; experiment: MIC broth microdilution; assay type: cell-based; conditions: Escherichia coli; screening strain; CAMHB, median of triplicates; read-out: MIC (μg/mL) E. coli TOP10F’
# Protocol: as §5
# [14] = test system: A. baumanni 9955; experiment: MIC broth microdilution; assay type: cell-based; conditions: Acinetobacter baumannii, clinical isolate, CAMHB, median of triplicates, read-out: MIC (μg/mL) A. baumanni 9955
# Protocol: as §5
# [15] = test system: E. coli BW25113; experiment: MIC broth microdilution; assay type: cell-based; conditions: Escherichia coli, CAMHB, median of triplicates, read-out: MIC (μg/mL) E. coli BW25113
# Protocol: as §5
# [16] = test system: S. aureus USA 300; experiment: MIC broth microdilution; assay type: cell-based; conditions: Staphylococcus aureus, USA300; clinical isolate; CAMHB, median of triplicates; read-out: MIC (μg/mL) S. aureus USA 300
# Protocol: as §5
# [17] = test system: K. pneumoniae 13883; experiment: MIC broth microdilution; assay type: cell-based; conditions: Klebsiella pneumoniae, clinical isolate, CAMHB, median of triplicates, read-out: MIC (μg/mL) K. pneumoniae 13883
# Protocol: as §5
# [18] = test system: P. aeruginosa 27853; experiment: MIC broth microdilution; assay type: cell-based; conditions: Pseudomonas aeruginosa, clinical isolate, CAMHB, median of triplicates, read-out: MIC (μg/mL) P. aeruginosa 27853
# Protocol: as §5
# [19] = Figure 3F, compounds at EC80, PMBN 25 μg/mL
# [20] = compounds at EC80, PMBN 25 μg/mL
molecule,measurement,setting,value
CO[C@@]12[C@H](COC(N)=O)C3=C(C(=O)C(C)=C(N)C3=O)N1C[C@@H]1N[C@@H]12 [mitomycin C],Rcs stress induction in MC4100 wildtype,[1],Neither compound induced Rcs stress
same,SOS stress induction in MC4100,[2],high fluorescence
same,SOS stress induction in TOP10F’,[3],did not induce high fluorescence
same,Rcs stress induction in SOS-deficient TOP10F’,[4]; fold change fluorescence/OD600,at lower levels than the gyrase inhibitors
polymyxin B nonapeptide [PMBN],Cpx Pattern,[5]; [19],Continuous
same,Cpx Response time,[5]; [19],Slow
same,heat shock induction,[6],did not induce heat shock
same,σE Response time,[7]; [19],Fast
same,σE Pattern,[7]; [20],Single peak
same,Rcs Response time,[4]; [19],Fast
same,Rcs Pattern,[4]; [20],Single peak
"NC(N)=NC(=O)CC(Nc1nc(N=C(N)N)nc(NC2CCC(NC(=O)Cn3nnc(-c4ccc(F)cc4)n3)CC2)n1)C1CC1 (stereo not shown) [MRL-494, reference compound]",% effect (Rcs stress-induced fluorescence),[8],100.4%
same,EC50 TOP10F',[9]; growth after 7 hours inhibited by 50% compared to DMSO control,16 µg/mL
same,EC80 TOP10F',[9]; growth after 7 hours inhibited by 80% compared to DMSO control,32 µg/mL
"CCn1cc(C(=O)O)c(=O)c2cc(F)c(N3CCNC(C)C3)c(F)c21 (stereo not shown) [lomefloxacin, Lomefloxacin, reference compound]",growth inhibition / susceptibility of GEPR mutant,[10],less susceptible
same,Rcs stress in FQR (gyrA S83L) mutant,[1],lacked Rcs stress
same,SOS stress induction in MC4100,[2],high fluorescence
same,SOS stress induction in TOP10F’,[3],did not induce high fluorescence
same,EC50,[11],0.125 µg/mL
same,IC80,[11],0.25 µg/mL
same,EC50,[9],0.031 µg/mL
same,IC80,[9],2 µg/mL
"O=c1ccc2ncc(=O)n3c2n1C[C@H]3CN1CCC(NCc2cc3c(cn2)OCCC3)CC1 [gepotidacin, Gepotidacin, reference compound]",Cpx onset time,[5]; EC80 concentrations,150 to 200 min
same,time of primary σE peak,[7]; EC80 concentrations,~150 min
same,σE onset time,[7]; EC80 concentrations,~60 min
same,fold change in σE stress (up to),"[7]; EC80 concentrations, vs DMSO",~3 fold
same,σE Pattern,[7]; [20],biphasic
same,growth inhibition / susceptibility of FQR (gyrA S83L) mutant,[10],remained susceptible to growth inhibition
same,growth inhibition / susceptibility of GEPR mutant,[10],moderate insensitivity
same,Rcs stress in FQR (gyrA S83L) mutant,[1],still exhibited Rcs stress
same,Rcs stress in GEPR mutant,[1],did not show Rcs stress
same,MIC,[12],2 µg/mL
same,MIC,[13],0.06 µg/mL
same,MIC,[14],16 µg/mL
same,MIC,[15],1 µg/mL
same,MIC,[16],0.25 µg/mL
same,MIC,[17],4 µg/mL
same,MIC,[18],8 µg/mL
same,EC50,[11],1 µg/mL
same,IC80,[11],8 µg/mL
same,EC50,[9],0.125 µg/mL
same,IC80,[9],8 µg/mL
same,Rcs onset time,[4]; EC80 concentrations,~100 min
same,time of (first) Rcs peak post-treatment,[4]; EC80 concentrations,260 to 280 min
same,fold increase in Rcs stress (up to),"[4]; EC80 concentrations, fluorescence/OD600 vs DMSO, 10 h",~17 fold
same,Rcs Pattern,[4]; [20],biphasic
